Data from patent US12509452B2, “Substituted-isoxazoline-containing aromatic compound, preparation method therefor, herbicidal composition and use thereof” (QINGDAO KINGAGROOT CHEMICAL COMPOUND CO., LTD., priority 2019, dated 2025).

Columns and labels:
Assay in all cases: weeding effect in post-emergence stage
Format in all cases: in vivo
Settings in all cases: dose 15 g a.i./ha
[1] = test system: Beckmannia syzigachne
Procedure, shortened: (§1)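 Post-emergence spray-tower application at 500, 250, 125, 60, 15 or 7.5 g a.i./ha, formulated in acetone with Tween 80 and 1.5 L/ha methyl oleate synergist, to pot-grown plants at the 2-3 leaf stage. After 3 weeks in the greenhouse, fresh-weight control rate graded levels 0-5; three replicates averaged.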

[2] = test system: Rorippa indica
Procedure, shortened: as §1

[3] = test system: Alopecurus japonicus
Procedure, shortened: as §1

[4] = test system: Conyza japonica
Procedure, shortened: as §1

| SMILES | weeding effect in post-emergence stage, Beckmannia syzigachne (activity level) [1] | weeding effect in post-emergence stage, Rorippa indica (activity level) [2] | weeding effect in post-emergence stage, Alopecurus japonicus (activity level) [3] | weeding effect in post-emergence stage, Conyza japonica (activity level) [4] |
| --- | --- | --- | --- | --- |
| CC(C)OC(=O)C1(C)CC(c2cc(-n3c(=O)n(C)c(=S)n(C)c3=O)c(F)cc2Cl)=NO1 (centres unmarked) [Compound 1-71] | 5 (Level 5: growth control rate is above 85%) | 5 (Level 5: growth control rate is above 85%) | 5 (Level 5: growth control rate is above 85%) | 5 (Level 5: growth control rate is above 85%) |
| CCCCOC(=O)C1(C)CC(c2cc(-n3c(=O)n(C)c(=S)n(C)c3=O)c(F)cc2Cl)=NO1 (centres unmarked) [Compound 1-72] | 5 (Level 5: growth control rate is above 85%) | 5 (Level 5: growth control rate is above 85%) | 5 (Level 5: growth control rate is above 85%) | 5 (Level 5: growth control rate is above 85%) |
| CC(C)COC(=O)C1(C)CC(c2cc(-n3c(=O)n(C)c(=S)n(C)c3=O)c(F)cc2Cl)=NO1 (centres unmarked) [Compound 1-73] | 5 (Level 5: growth control rate is above 85%) | 5 (Level 5: growth control rate is above 85%) | 5 (Level 5: growth control rate is above 85%) | 5 (Level 5: growth control rate is above 85%) |
| Cn1c(=S)n(C)c(=O)n(-c2cc(C3=NOC(C)(C(=O)OC(C)(C)C)C3)c(Cl)cc2F)c1=O (centres unmarked) [Compound 1-74] | 5 (Level 5: growth control rate is above 85%) | 5 (Level 5: growth control rate is above 85%) | 5 (Level 5: growth control rate is above 85%) | 5 (Level 5: growth control rate is above 85%) |
| CCCCCCC(C)OC(=O)C1(C)CC(c2cc(-n3c(=O)n(C)c(=S)n(C)c3=O)c(F)cc2Cl)=NO1 (centres unmarked) [Compound 1-75] | 5 (Level 5: growth control rate is above 85%) | 5 (Level 5: growth control rate is above 85%) | 5 (Level 5: growth control rate is above 85%) | 5 (Level 5: growth control rate is above 85%) |
| C=CCOC(=O)C1(C)CC(c2cc(-n3c(=O)n(C)c(=S)n(C)c3=O)c(F)cc2Cl)=NO1 (centres unmarked) [Compound 1-76] | 5 (Level 5: growth control rate is above 85%) | 5 (Level 5: growth control rate is above 85%) | 5 (Level 5: growth control rate is above 85%) | 5 (Level 5: growth control rate is above 85%) |
| C#CCOC(=O)C1(C)CC(c2cc(-n3c(=O)n(C)c(=S)n(C)c3=O)c(F)cc2Cl)=NO1 (centres unmarked) [Compound 1-79] | 5 (Level 5: growth control rate is above 85%) | 5 (Level 5: growth control rate is above 85%) | 5 (Level 5: growth control rate is above 85%) | 5 (Level 5: growth control rate is above 85%) |
| CC#CCOC(=O)C1(C)CC(c2cc(-n3c(=O)n(C)c(=S)n(C)c3=O)c(F)cc2Cl)=NO1 (centres unmarked) [Compound 1-80] | 5 (Level 5: growth control rate is above 85%) | 5 (Level 5: growth control rate is above 85%) | 5 (Level 5: growth control rate is above 85%) | 5 (Level 5: growth control rate is above 85%) |
| C#CCCOC(=O)C1(C)CC(c2cc(-n3c(=O)n(C)c(=S)n(C)c3=O)c(F)cc2Cl)=NO1 (centres unmarked) [Compound 1-81] | 5 (Level 5: growth control rate is above 85%) | 5 (Level 5: growth control rate is above 85%) | 5 (Level 5: growth control rate is above 85%) | 5 (Level 5: growth control rate is above 85%) |
| C#CC(C)OC(=O)C1(C)CC(c2cc(-n3c(=O)n(C)c(=S)n(C)c3=O)c(F)cc2Cl)=NO1 (centres unmarked) [Compound 1-82] | 5 (Level 5: growth control rate is above 85%) | 5 (Level 5: growth control rate is above 85%) | 5 (Level 5: growth control rate is above 85%) | 5 (Level 5: growth control rate is above 85%) |
| Cn1c(=S)n(C)c(=O)n(-c2cc(C3=NOC(C)(C(=O)OC4CC4)C3)c(Cl)cc2F)c1=O (centres unmarked) [Compound 1-83] | 5 (Level 5: growth control rate is above 85%) | 5 (Level 5: growth control rate is above 85%) | 5 (Level 5: growth control rate is above 85%) | 5 (Level 5: growth control rate is above 85%) |
| Cn1c(=S)n(C)c(=O)n(-c2cc(C3=NOC(C)(C(=O)OCC4CC4)C3)c(Cl)cc2F)c1=O (centres unmarked) [Compound 1-84] | 5 (Level 5: growth control rate is above 85%) | 5 (Level 5: growth control rate is above 85%) | 5 (Level 5: growth control rate is above 85%) | 5 (Level 5: growth control rate is above 85%) |
| Cn1c(=S)n(C)c(=O)n(-c2cc(C3=NOC(C)(C(=O)OCC(F)F)C3)c(Cl)cc2F)c1=O (centres unmarked) [Compound 1-86] | 5 (Level 5: growth control rate is above 85%) | 5 (Level 5: growth control rate is above 85%) | 5 (Level 5: growth control rate is above 85%) | 5 (Level 5: growth control rate is above 85%) |
| Cn1c(=S)n(C)c(=O)n(-c2cc(C3=NOC(C)(C(=O)OCC(F)(F)F)C3)c(Cl)cc2F)c1=O (centres unmarked) [Compound 1-87] | 5 (Level 5: growth control rate is above 85%) | 5 (Level 5: growth control rate is above 85%) | 5 (Level 5: growth control rate is above 85%) | 5 (Level 5: growth control rate is above 85%) |
| Cn1c(=S)n(C)c(=O)n(-c2cc(C3=NOC(C)(C(=O)OCCCF)C3)c(Cl)cc2F)c1=O (centres unmarked) [Compound 1-88] | 5 (Level 5: growth control rate is above 85%) | 5 (Level 5: growth control rate is above 85%) | 5 (Level 5: growth control rate is above 85%) | 5 (Level 5: growth control rate is above 85%) |
| Cn1c(=S)n(C)c(=O)n(-c2cc(C3=NOC(C)(C(=O)OCC(C)(F)F)C3)c(Cl)cc2F)c1=O (centres unmarked) [Compound 1-89] | 5 (Level 5: growth control rate is above 85%) | 5 (Level 5: growth control rate is above 85%) | 5 (Level 5: growth control rate is above 85%) | 5 (Level 5: growth control rate is above 85%) |
| Cn1c(=S)n(C)c(=O)n(-c2cc(C3=NOC(C)(C(=O)OCCC(F)(F)F)C3)c(Cl)cc2F)c1=O (centres unmarked) [Compound 1-90] | 5 (Level 5: growth control rate is above 85%) | 5 (Level 5: growth control rate is above 85%) | 5 (Level 5: growth control rate is above 85%) | 5 (Level 5: growth control rate is above 85%) |
| Cn1c(=S)n(C)c(=O)n(-c2cc(C3=NOC(C)(C(=O)OCC=CCl)C3)c(Cl)cc2F)c1=O (centres unmarked) [Compound 1-92] | 5 (Level 5: growth control rate is above 85%) | 5 (Level 5: growth control rate is above 85%) | 5 (Level 5: growth control rate is above 85%) | 5 (Level 5: growth control rate is above 85%) |
| CCOC(=O)CCC1(C)CC(c2cc(-n3c(=O)n(C)c(=S)n(C)c3=O)c(F)cc2Cl)=NO1 (centres unmarked) [Compound 1-94] | 5 (Level 5: growth control rate is above 85%) | 5 (Level 5: growth control rate is above 85%) | 5 (Level 5: growth control rate is above 85%) | 5 (Level 5: growth control rate is above 85%) |
| CCOC(=O)CCCC1(C)CC(c2cc(-n3c(=O)n(C)c(=S)n(C)c3=O)c(F)cc2Cl)=NO1 (centres unmarked) [Compound 1-96] | 5 (Level 5: growth control rate is above 85%) | 5 (Level 5: growth control rate is above 85%) | 5 (Level 5: growth control rate is above 85%) | 5 (Level 5: growth control rate is above 85%) |
